Experimental data as given in US20250296942A1, “Phosphonate-Based Coordination Complexes and Methods of Preparation and Use Thereof” (University of Puerto Rico, priority 2021, published 2025).

Key:
[1] = system: human osteoblast hFOB 1.19 cell line; assay: AlamarBlue cytotoxicity, BPBPA series, hFOB 1.19; assay type: cell-based; settings: for IC50: Homo sapiens, Osteoblast
Procedure: Cell culture methods. MCF-7, MDA-MB-231, and hFOB 1.19 cell lines were incubated employing DMEM (37° C.) and DMEM: F12 (34° C.) medium, respectively, in a 5% CO2. Cell lines were supplemented using 10% FBS and 1% Pen-Strep and medium exchange was performed twice a week. Cell passages were carried out at 80% confluency.
Cell-based assays. Cell lines were seeded in 96 well plates at a density of 5×10^3 cells/mL, cells were incubated for 24 h before treatment. Both cell lines were treated with 100 μL of BPBPA (0-400 μM), LET (0-200 μM), unloaded and loaded nano-Ca@BPBPA (0-50 μM). All cell-based assays were performed for 24, 48, and 72 h of treatment. Control groups were treated with media (DMEM or DMEM: F12) supplemented with 1% Pen-Strep. Then, the media was removed and replaced with 100 μL of 10% AlamarBlue® solution. The 96 well plates were incubated for 4 h before measurements. Then, the fluorescence was assessed at 560 nm of excitation and λmax 590 nm of emission. The cell viability (%) was evaluated by contrasting the percentage of live cells of the control groups with the cells treated with BPBPA, LET, unloaded and loaded nano-Ca@BPBPA. The half-maximal inhibitory concentration (IC50) was determined for BPBPA and letrozole employing the dose-response curves (% cell live vs. concentration). The relative cell live (% RCL) was assessed for the unloaded and loaded nano-Ca@BPBPA, utilizing LET as a control group. The IC50 and % RCL were plotted using the GraphPad Prism software vs. 9.3.0.
The cytotoxicity of BPBPA (control), LET (control), nano-Ca@BPBPA (control), and drug-loaded nano-Ca@BPBPA (experimental) was investigated employing the human breast cancer, MCF-7 and MDA-MB-231, and the human osteoblast, hFOB 1.19, cell lines. The human MCF-7 cell line represents an ER-positive breast cancer model with estrogen, progesterone, and glucocorticoid receptors.^1 While, the human MDA-MB-231 cells correspond to a model of ER-negative breast cancer. Both selected cancer cell lines can be implicated in the development and progress of bone metastases in patients.^40,41 The human fetal hFOB 1.19 cells represent a homogeneous osteoblast-like (non-cancerous) model commonly employed to assess osteoblast differentiation.^42 The cytotoxicity of these materials was evaluated by determining the IC50 and % RCL. […] Similar results were found for MDA-MB-231 and hFOB 1.19 cell lines treated with LET (IC50 >200 μM) at the same time points (Supporting Information).
Cell culture methods. MCF-7 and MDA-MB-231 were incubated employing DMEM media at 37° C. in 5% CO2. The hFOB 1.19 cell lines were incubated using DMEM: F12 at 34° C. in 5% CO2. […]
AlamarBlue@assay. […] Then, the fluorescence was assessed at 560 nm of excitation and λmax 590 nm of emission.

[2] = Dissolution of 2,2′-BPBPA-based BPCCs in PBS (2,2′-BPBPA released, 299 nm); assay type: physicochemical; settings: 37° C., 150 rpm, mean n = 2
Procedure: Dissolution experiment. In a 250 mL beaker was tranfer 100 mL of PBS or FaSSGF.
Subsequently, this solution was allowed to reach 37° C. at 150 rpm. Then, individually ˜10.0 mg of powdered 2,2′-BPBPA-based BPCCs were added to the PBS or FaSSGF solution. Aliquots (1 mL) were taken out at different time points (0, 1, 3, 6, 24, 48, and 72 h) and diluted with PBS or FaSSGF in 5 mL volumetric flasks. An aliquot (1 mL) was taken out before adding the 2,2′-BPBPA-based BPCCs to record the first time point (0 h). The dissolution experiments were performed in duplicate for each 2,2′-BPBPA-based BPCC. The absorbance of the 2,2′-BPBPA released from these materials was assessed at 299 (PBS) and 318 (FaSSGF) nm.
The release of 2,2′-BPBPA from the coordination complexes was assessed in physiological conditions (PBS, pH=7.40 and FaSSGF, pH=1.60). The absorbance of the supernatant was measured at the lambda of maximum absorption to determine the quantity of 2,2′-BPBPA release over time in PBS (λmax=299 nm) and FaSSGF (λmax=318 nm) at 37° C. It was observed that the 2,2′-BPBPA-based BPCCs release from 8 to 13% of 2,2′-BPBPA in neutral conditions (FIG. 160A). […] In acidic conditions, these 2,2′-BPBPA-based BPCCs release from 64 to 90% of 2,2′-BPBPA. The 2,2′-BPBPA-Ca (90%) and 2,2′-BPBPA-Zn (84%) presented the highest release of the ligand contrasted with 2,2′-BPBPA-Mg (64%) in FaSSGF (FIG. 160B). In particular, the 2,2′-BPBPA-Ca collapsed almost completely, indicating the possible ability of this material to degrade once in the acid environment of metastatic cancerous cells and be able to release potential cargo drugs.
Dissolution experiment. In a 250 mL beaker was tranfer 100 mL of PBS. Subsequently, this solution was allowed to reach 37° C. at 150 rpm. Then, individually ˜10.0 mg of powdered 2,2′-BPBPA-based BPCCs were added to the PBS solution. Aliquots (1 mL) were taken out at different time points (0, 1, 3, 6, 24, 48, and 72 h) and diluted with PBS in 5 mL volumetric flasks. An aliquot (1 mL) was taken out before adding the 2,2′-BPBPA-based BPCCs to record the first time point (0 h). The absorbance of the 2,2′-BPBPA released from these materials was assessed at 299 nm. The dissolution experiments were performed in duplicate for each 2,2′-BPBPA-based BPCC. The percentage (%) of 2,2′-BPBPA released in PBS from these complexes is illustrated in Table 30.

% Released (2,2′-BPBPA released in PBS) ([2]; 0 h (aliquot before addition))	% Released (2,2′-BPBPA released in PBS) ([2]; 1 h)	% Released (2,2′-BPBPA released in PBS) ([2]; 3 h)	% Released (2,2′-BPBPA released in PBS) ([2]; 6 h)	% Released (2,2′-BPBPA released in PBS) ([2]; 24 h)	% Released (2,2′-BPBPA released in PBS) ([2]; 48 h)	% Released (2,2′-BPBPA released in PBS) ([2]; 72 h)	SMILES	% RCL ([1]; 12.5 μM, 72 h)	IC50 ([1]; 24 h)	IC50 ([1]; 48 h)	IC50 ([1]; 72 h)
–	–	–	–	–	–	–	N#Cc1ccc(C(c2ccc(C#N)cc2)n2cncn2)cc1 [LET, letrozole]	100±1%	> 200 µM	> 200 µM	> 200 µM
0%	88%	90%	91%	97%	97%	97%	O=P(O)(O)c1ccc(-c2ccc(P(=O)(O)O)cn2)nc1 [2,2′-BPBPA, 2,2′-bipyridine-5,5′-bisphosphonic acid]	–	–	–	–
